Activity calls are given as the source filed them. The calls are words filed in the database; no cut-off is given here.
Key:
CAPAN-1 = experiment: Growth inhibition of BRCA2-deficient human Capan1 cells at 2.5 to 10 uM following media refreshment every 3 days and measured on day 10 by CellTiter-Glo assay; type: functional, cell-based
Homo sapiens = organism: Homo sapiens; experiment: Growth inhibition of BRCA1-deficient human UWB1.289 cells at 2.5 to 10 uM following media refreshment every 3 days and measured on day 10 by CellTiter-Glo assay; type: functional
[1] = target: T1, DNA repair protein RAD51 homolog 1 (Homo sapiens) (UniProt Q06609); experiment: Inhibition of RAD51 (unknown origin) assessed as inhibition of DNA pairing by measuring D-loop formation between [32P]-ssDNA and homologous supercoiled pUC19 DNA at 30 uM incubated for 15 mins by gel electrophoresis method relative to control
T1 sequence (whole entry): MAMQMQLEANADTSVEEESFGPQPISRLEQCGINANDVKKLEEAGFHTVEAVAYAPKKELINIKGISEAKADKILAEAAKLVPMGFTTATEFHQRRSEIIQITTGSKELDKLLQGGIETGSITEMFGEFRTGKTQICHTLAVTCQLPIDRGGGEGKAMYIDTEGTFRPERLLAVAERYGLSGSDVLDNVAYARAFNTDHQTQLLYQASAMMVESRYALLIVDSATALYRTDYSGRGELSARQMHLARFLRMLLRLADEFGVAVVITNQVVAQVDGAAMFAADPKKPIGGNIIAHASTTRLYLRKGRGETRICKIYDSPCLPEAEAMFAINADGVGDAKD

[2] = target: T2, DNA repair protein RAD52 homolog (Homo sapiens) (UniProt P43351); experiment: Inhibition of RAD52 (unknown origin) assessed as inhibition of DNA pairing using [32P]-ssDNA by measuring D-loop formation incubated for 15 mins by gel electrophoresis method
T2 sequence (whole entry): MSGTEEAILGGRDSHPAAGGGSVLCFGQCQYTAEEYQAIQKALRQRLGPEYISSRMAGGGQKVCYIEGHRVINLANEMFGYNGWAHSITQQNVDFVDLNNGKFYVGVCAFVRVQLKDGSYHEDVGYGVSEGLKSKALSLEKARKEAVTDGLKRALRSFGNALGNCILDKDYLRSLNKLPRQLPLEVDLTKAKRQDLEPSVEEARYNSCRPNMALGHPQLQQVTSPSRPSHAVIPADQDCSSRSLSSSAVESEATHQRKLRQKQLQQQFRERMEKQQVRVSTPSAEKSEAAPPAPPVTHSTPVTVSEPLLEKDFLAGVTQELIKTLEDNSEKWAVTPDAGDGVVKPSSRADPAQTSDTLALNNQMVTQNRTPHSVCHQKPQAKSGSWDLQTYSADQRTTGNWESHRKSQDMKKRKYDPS

[3] = target: T1, DNA repair protein RAD51 homolog 1 (Homo sapiens); experiment: Inhibition of RAD51 (unknown origin) assessed as inhibition of DNA pairing by measuring D-loop formation between [32P]-ssDNA and homologous supercoiled pUC19 DNA at 10 times RAD52 IC50 incubated for 15 mins by gel electrophoresis method relative to control
Salmon testes DNA = experiment: Binding affinity to salmon sperm DNA incubated for 20 mins by acridine orange displacement based fluorescence polarization assay; type: nucleic-acid assay; conditions: Salmonidae
[4] = target: T2, DNA repair protein RAD52 homolog (Homo sapiens); experiment: (§1) Inhibition of RAD52 (unknown origin) expressed in BCR-ABL1-positive and BRCA1-deficient mouse 32Dcl3 cells expressing GFP-RAD52 assessed as reduction in cisplatin-induced RAD52 foci formation at 2.5 uM by AlexaFluor-594 staining based inverted fluorescence microscopy relative to control; type: cell-based
[5] = target: T2, DNA repair protein RAD52 homolog (Homo sapiens); experiment: as §1, with “as” for “as reduction in”, “formation by measuring fraction of cell without foci” for “formation”, “(reference value: 48.4 +/- 6.2%)” for “relative to control”; design: scale not given: the % may be the effect or the level left

inhibition [1] [%] | inhibition [2] | inhibition [3] [%] | Activity (Salmon testes DNA) | fold change (FC) [4] | Activity [5] [%] | Compound | growth inhibition (GI) (CAPAN-1) | growth inhibition (GI) (Homo sapiens)
> 90 | Dose-dependent effect | 92.5 | – | – | – | Cc1ccc(C(=O)c2oc3ccc(Cl)cc3c2NC(=O)CN2CCN(C)CC2)cc1 | – | –
> 90 | Dose-dependent effect | 73.6 | – | – | – | Cc1ccc(-c2nc(C(=O)NCCCN3CCOCC3)cc3c2[nH]c2ccccc23)cc1 | – | –
> 90 | Dose-dependent effect | 97.5 | – | – | – | Cc1c(C(=O)Nc2ccc(S(=O)(=O)N(C)C3CCN(C)CC3)cc2)oc2c(Cl)cccc12 | – | –
> 90 | Dose-dependent effect | 38.4 | – | – | – | CN1CCN(CCCNC(=O)c2cc3c(-c4ccc(Cl)cc4)nn(C)c3s2)CC1 | – | –

More lines, now with the values behind:

Compound | inhibition [1] [%] | inhibition [2] | inhibition [3] [%] | Activity (Salmon testes DNA) | fold change (FC) [4] | Activity [5] [%] | growth inhibition (GI) (CAPAN-1) | growth inhibition (GI) (Homo sapiens)
COc1ccc(OC)c(Nc2nc(NCCCO)c3ccccc3n2)c1 | > 90 | Dose-dependent effect | 75.6 | inactive | 2 to 2.5 | 71.9 | Active | Active
Cn1nc(-c2ccc(Cl)cc2)c2cc(C(=O)NCCCN3CCCC3)sc21 | > 90 | Dose-dependent effect | 35.3 | – | – | – | – | –
CCN1CCN(CCCNC(=S)Nc2ccc3nc(N(C)CCN)cc(C)c3c2)CC1 | > 90 | Dose-dependent effect | 111 | – | – | – | – | –
CCCCN(CC)CCCN=C(S)Nc1ccc2nc(N3CCN(C)CC3)cc(C)c2c1 | > 90 | Dose-dependent effect | 108 | – | – | – | – | –

Source: ChEMBL document CHEMBL4417629, “Inhibitors of RAD52 Recombination Protein and Methods Using Same” (2018)
